{
  "source": "patent US20190161483A1",
  "about": "“METHODS FOR USING FXR AGONISTS” (Novartis AG, priority 2017, published 2019)",
  "key": {"NASH subjects": {"test_system": "NASH subjects", "details": "FLINT trial; placebo 6%; cited from earlier work"}, "FGRS": {"test_system": "FGRS", "assay": "FGRS effects (specificity)"}, "NASH mice": {"test_system": "NASH mice", "assay": "Diet-induced (AMLN diet) obese, insulin-resistant NASH model", "assay_type": "in vivo, mouse", "text": "A separate model for diet-induced NASH was developed as described by Trevaskis et al. Male C57BI6 mice aged ˜6 weeks were maintained on a high fat (40% kcal; Primex), high fructose (22% by weight), and high cholesterol (2% by weight) diet (Research Diets Inc., New Brunswick, N.J. cat. no. D09100301) for 26 weeks to induce NASH. Control animals received low-fat diet (10% kcal) with no fructose or cholesterol (Research Diets, cat. no. D09100304). […] . Expression of collagen, type I, alpha 1 (Col1a1) and tissue inhibitor of metalloproteinase 1 (Timp1) genes was analyzed by real time quantitative PCR.\n. NASH was established in mice by feeding a high trans-fat, high fructose, and high cholesterol diet (AMLN diet) for 26 weeks followed by compound treatment for an additional 4 weeks. […] . […] ."}, "[1]": {"assay": "Exposure prediction and exposure-response analysis in NASH patients", "assay_type": "in vivo, human"}, "NASH patients": {"test_system": "NASH patients", "assay": "Tropifexor 140-250 μg in patients with mild to moderate NASH and F2/F3 fibrosis", "assay_type": "in vivo, human", "details": "dose of about 140 μg to about 250 μg", "text": "Adult male and female patients with EITHER histologic evidence of NASH on liver biopsy within 2 years prior to randomization and elevated ALT, OR phenotypic diagnosis of NASH based on elevated ALT, Type 2 diabetes mellitus or elevated HbA1c and increased BMI, in both cases accompanied by liver fat >10% on centrally-read MRI.\nDiagnosis of NASH: Adequate liver biopsy sample for evaluation by Central Reader to confirm Histologic evidence of NASH based on liver biopsy obtained during the Screening period or within 6 months before randomization with a diagnosis consistent with NASH, fibrosis level F2 or F3, and no diagnosis of alternative chronic liver diseases._AND_ALT ≥43 IU/L (males) or ≥28 IU/L (females).\nPatients are assigned at the baseline visit to one of the following 3 treatment arms in a ratio of 1:1:1 in a blinded manner. Placebo capsules will be given to maintain blinding.\nArm 3: Once daily (morning, fasting) treatment with matching placebo for 48 weeks\nThe efficacy variables are: MRI for hepatic fat fraction, Liver Function Test, Liver histology, Coagulation test, Markers of liver fibrosis, NAFLD Fibrosis score, Fasting lipids, Fasting insulin and glucose, Soluble biomarkers."}, "FGF19": {"test_system": "FGF19", "assay": "Pharmacodynamic marker FGF19 with increasing doses", "assay_type": "in vivo", "details": "increasing doses up to 3000 μg"}, "STAM mice": {"test_system": "STAM mice", "assay": "STAM model of NASH"}, "[2]": {"test_system": "ANIT-induced cholestatic rats", "assay": "ANIT-induced cholestasis rat model"}, "[3]": {"assay": "Oral gavage toxicity study in dogs for up to 39 weeks", "details": "dog, in vivo"}},
  "data": [
    {"molecule": "CC[C@H]1[C@@H](O)[C@@H]2[C@H](CC[C@]3(C)[C@@H]([C@H](C)CCC(=O)O)CC[C@@H]23)[C@@]2(C)CC[C@@H](O)C[C@@H]12", "note": "[OCA, 6α-ethyl-chenodeoxycholic acid]", "values": [
      {"measurement": "patients with pruritus", "setting": "NASH subjects", "result": 23, "unit": "%"}
    ]},
    {"molecule": "O=C(O)c1cc(F)c2nc(N3C4CC[C@H]3C[C@H](OCc3c(-c5ccccc5OC(F)(F)F)noc3C3CC3)C4)sc2c1", "note": "[tropifexor, 2-[(1R,3r,5S)-3-({5-cyclopropyl-3-[2-(trifluoromethoxy)phenyl]-1,2-oxazol-4-yl}methoxy)-8-azabicyclo[3.2.1]octan-8-yl]-4-fluoro-1,3-benzothiazole-6-carboxylic acid]", "values": [
      {"measurement": "FGRS effects", "setting": "FGRS", "result": "no FGRS effects"},
      {"measurement": "IBA positive staining (inflammation)", "setting": "NASH mice; 0.3 and 0.9 mg/kg dose groups", "result": "normalized to the same level of the control diet group"},
      {"measurement": "liver histology: steatosis, ballooning, and inflammation", "setting": "NASH mice; 0.3 and 0.9 mg/kg dose groups", "result": "completely reverted"},
      {"measurement": "collagen deposition in liver (trichrome staining)", "setting": "NASH mice; even to levels lower than low-fat diet control mice", "result": "strongly abrogates"},
      {"measurement": "ALT/AST", "setting": "NASH mice; high dose", "result": "reduced ALT/AST to an even greater extent"},
      {"measurement": "hepatic crown-like structures", "setting": "NASH mice; mid- and high dose", "result": "completely eliminated"},
      {"measurement": "ALT and AST levels", "setting": "NASH mice; mid-dose level", "result": "normalized ALT and AST levels to that of control animals"},
      {"measurement": "mRNA levels of fibrogenic markers Col1a1 and TIMP1", "setting": "NASH mice; mouse, in vivo", "result": "dramatically reduced"},
      {"measurement": "steatosis by quantification of liver triglycerides", "setting": "NASH mice; mouse, in vivo", "result": "Dose-dependent reduction in steatosis"},
      {"measurement": "ALT and AST", "setting": "NASH mice; relative to vehicle-treated controls", "result": "dose-dependent reduction"},
      {"measurement": "predicted exposure", "setting": "[1]; 200 μg daily in NASH patients", "result": "approximately 80 ng·hr/ml"},
      {"measurement": "NASH patients achieving an AUC >40 ng*h/mL", "setting": "[1]; 200 μg dose", "result": "~95", "unit": "%"},
      {"measurement": "AUC", "setting": "[1]; human, in vivo, oral, 200 ug, read-out: exposure level (AUC) in NASH patients", "result": 80, "unit": "ng·h/mL"},
      {"measurement": "patients with liver fibrosis improvement (at least 1 stage) with no worsening of NAS", "setting": "NASH patients", "result": "about 50%"},
      {"measurement": "patients with normalization of liver enzymes", "setting": "NASH patients", "result": "≥ 50", "unit": "%"},
      {"measurement": "patients with resolution of NASH (NAS 0 or 1) with no worsening of liver fibrosis", "setting": "NASH patients", "result": "about 30%"},
      {"measurement": "pruritus outcomes (NASH PRO, 5-D pruritus or VAS)", "setting": "NASH patients", "result": "no significant pruritus outcomes"},
      {"measurement": "reduction of hepatic fat, absolute", "setting": "NASH patients", "result": 5, "unit": "%"},
      {"measurement": "FGF19", "setting": "FGF19", "result": "continues to rise"},
      {"measurement": "NAFLD activity score (NAS)", "setting": "STAM mice; doses 0.1 and 0.3 mg/kg, qd orally weeks 9-12", "result": "significant decrease"},
      {"measurement": "fibrosis area", "setting": "STAM mice; in comparison with baseline group", "result": "decreased in comparison with baseline group"},
      {"measurement": "pericellular fibrosis (Sirius Red-positive areas)", "setting": "STAM mice; mouse, in vivo", "result": "statistically significant dose-dependent reduction"},
      {"measurement": "liver triglycerides", "setting": "STAM mice; tropifexor qd orally weeks 9-12, relative to baseline group", "result": "reduction in liver triglycerides"},
      {"measurement": "levels of most cholestatic markers", "setting": "[2]; 1.0 mg/kg dose, oral qd 5 days", "result": "normalized to corresponding levels of vehicle-treated non-cholestatic control animals"},
      {"measurement": "collagen deposition and liver fibrosis", "setting": "[2]; dose-dependent manner", "result": "highly reduced"},
      {"measurement": "quantitation of collagen deposition (fibrosis)", "setting": "[2]; dose-dependent manner", "result": "significantly decreased"},
      {"measurement": "AST, ALT, total BAs, total bilirubin, and GGT levels", "setting": "[2]; doses as low as 0.3 mg/kg, oral qd 5 days", "result": "marked reduction"},
      {"measurement": "liver histology: necrosis of the bile duct epithelium, bile duct hyperplasia, inflammatory cell infiltrates", "setting": "[2]; versus vehicle-treated cholestatic rats", "result": "dose-dependent improvement"},
      {"measurement": "AUC(0-t)", "setting": "[3]; female", "result": 507, "unit": "ng·h/mL"},
      {"measurement": "AUC(0-t)", "setting": "[3]; male", "result": 898, "unit": "ng·h/mL"}
    ]}
  ]
}
